Data taken from patent US20250057813A1, “APOPTOSIS RELATED PROTEIN IN THE TGF-BETA SIGNALING PATHWAY (ARTS) MIMETIC COMPOUNDS, COMPOSITIONS, METHODS AND USES THEREOF IN INDUCTION OF APOPTOSIS” (Carmel-Haifa University Economic Corporation Ltd., priority 2022, published 2025).

Key:
[1] = tested on: MCF10AT1K (M2) cells; experiment: 3D BME culture of M2 organoids, light microscopy; type: cell-based, Human
Procedure: Cells were harvested from their growth plates using 0.25% trypsin EDTA. Collected cells were cultured in Cultrex® growth factor reduced Basement Membrane Extract (BME: Trevigen, Inc) as follows: An 8 chamber glass slide system (Lab-TEK® II, Naperville, IL) was coated with 60 μl BME [Barkan D. et al., Cancer Research (2008)](protein concentration between […]; thickness-1-2 mm). 5×10^3 cells per well were re-suspended in DMEM/F12 supplemented with 2.5% DHS and 2% BME and cultured on the coated slides. Slides were incubated at 37° C., 5% CO2 incubator. Cells were re-fed every 4 days. Cell morphology was monitored by light microscopy. Immunofluorescence images were captured by Nikon Al—R confocal laser scanning microscope (Haifa University, Haifa, Israel).

[2] = biological target: T1, binding between ARTS and p53 (Mus musculus, UniProt P02340); experiment: Co-immuno-precipitation between ARTS and p53 in Sept4/ARTS KO MEFs; type: cell-based; conditions: B3 for 24 hrs
T1 construct: expressed in transfected cells; host or cells: Sept4/ARTS KO MEFs (per the earlier reading)
T1 sequence (P02340 whole entry): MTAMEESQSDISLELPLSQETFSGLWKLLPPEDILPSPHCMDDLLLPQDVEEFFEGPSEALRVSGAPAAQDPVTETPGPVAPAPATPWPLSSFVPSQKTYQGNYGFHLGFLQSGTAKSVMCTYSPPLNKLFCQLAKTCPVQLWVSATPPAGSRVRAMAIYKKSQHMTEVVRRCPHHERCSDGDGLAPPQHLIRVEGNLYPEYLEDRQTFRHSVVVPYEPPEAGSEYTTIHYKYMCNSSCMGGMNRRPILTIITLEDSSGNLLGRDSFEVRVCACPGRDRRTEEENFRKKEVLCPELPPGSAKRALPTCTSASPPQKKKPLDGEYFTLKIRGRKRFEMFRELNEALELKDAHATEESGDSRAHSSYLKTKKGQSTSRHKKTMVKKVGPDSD
Procedure: Cells were harvested and lysed with radioimmunoprecipitation assay (RIPA) buffer (Tris-HCl pH 7.5 50 mM, NaCl 150 mM, NP-40 (Igepal) 0.3%) containing protease inhibitor cocktail (Complete, Roche) and 100 μg/ml PMSF. Antibodies were used at 5 μg per […] protein and incubated overnight, rotating at 4° C. The next day, agarose beads conjugated to protein A/G (Santa Cruz Biotechnology) were added for 4 h with rotation at 4° C. Samples were centrifuged at 4° C. for 5 min and washed five times with RIPA buffer. Proteins were eluted from beads by 10 min of boiling in sample buffer and separated on 12% SDS-PAGE gel, followed by Western blot analysis.

[3] = tested on: A375 human melanoma cells; experiment: SDS PAGE and Western blot analysis of A375 cells; type: cell-based
Procedure: The cells were lysed in WCE (whole-cell extract) buffer [25 mM Hepes, pH 7.7, 0.3M NaCl, 1.5 mM MgCl2, 0.2 mM EDTA, 0.1% Triton X-100, 100[μg/ml PMSF and protease inhibitor cocktail (Roche, 1:100 dilution)]. 100 μg of total cell protein, measured with the Bio-Rad Protein Assay kit, were separated by SDS-PAGE (12%) followed by transfer for 2 h on to a nitrocellulose membrane. The membrane was blocked with 5% (w/v) non-fat dried skimmed milk powder in PBS supplemented with 0.05% Tween20 (PBS-T) for 1 hour at room temperature (R.T). Membrane was then probed with primary antibody at 4° C. overnight. Next, the membrane was incubated with the appropriate HRP-conjugated secondary antibody, for 1 hour at R.T. and washed 15 min ×3 with PBS-T. WesternBright ECL (Advansta) was added to the membrane for 2 min and analyzed using ImageQuant LAS-4000 analyzer (GE Healthcare Life Sciences) & “ImageQuant LAS-4000” software (GE Healthcare Life Sciences). Densitometry analysis was performed using ImageQuant total lab 7 (GE Healthcare Life Sciences), image analysis software.
Cells were lysed in whole-cell extract buffer [25 mM HEPES, pH 7.7, […], 1.5 mM MgCl2, 0.2 mM EDTA, 0.1% Triton X-100, 100 μg/ml phenylmethylsulfonyl fluoride (PMSF) and protease inhibitor cocktail (Roche, 1:100 dilution)] and placed on ice for 30 min (vortexing once after 15 min). After 30 minutes, the samples were centrifuged at 13,000×g for 10 minutes at 4° C. The supernatants containing total protein were measured for protein concentration using Bio-Rad Protein Assay Dye Reagent Concentrate Kit. 40 to […] was separated by sodium dodecyl sulfate-polyacrylamide gel electrophoresis (SDS-PAGE) (12% or 7.5%), followed by transfer to a nitrocellulose membrane. The membranes were blocked with 5% (w/v) non-fat dried skimmed milk powder in PBS supplemented with 0.05% Tween-20 (PBS-T) for 1 h at RT. Next, primary antibodies were added at 4° C. overnight or for 2 h at room temperature. Membranes were then incubated with secondary antibody for 1 h at RT and washed three times for 15 min each with PBS-T. Western Bright ECL (Advansta) was added to the membrane for 30-60 s and analyzed using Image Quant LAS-4000 (GE Healthcare Life Sciences) and Image Quant LAS-4000 software (GE Healthcare Life Sciences).

[4] = tested on: 93 cancer cell lines; experiment: Viability assay (SRB), cancer cell line screen; type: cell-based; conditions: 72 hrs, 10 mM to 0.1 μM
Procedure: (§1) The assay was performed at six tenfold serial dilutions of the B3 compounds: 10 mM (stock), 1 mM, 100 μM, 10 μM, 1 μM and 0.1 μM. The screen was performed on 93 cancer cell lines and PBMC as normal cell control. The B3 compound was incubated with the cells for 72 hours. The following cancer cell lines were screened:
(§2) The Sulforhodamine B (SRB) assay was used as a screening method. Briefly, the method relies on the property of SRB, to bind stoichiometrically to proteins under mild acidic conditions and to be extracted under basic conditions. Thus, the amount of bound dye can be used as a proxy for cell mass, which can then be extrapolated to measure cell proliferation. The protocol can be divided into four main steps: preparation of treatment, incubation of cells with treatment of choice, cell fixation and SRB staining and absorbance measurement.

[5] = tested on: A-375 cells; experiment: Viability assay (SRB), cancer cell line screen; type: cell-based; conditions: Homo sapiens; A-375, 72 hours incubation; read-out: GI50 score
Procedure: as §1, §2

[6] = biological target: T2, p53 ubiquitylation by XIAP (Homo sapiens, UniProt P98170); experiment: In vitro ubiquitylation assay, recombinant GST-XIAP and p53; type: biochemical; conditions: 20 and 40 μM B3, 1 hour at 37C
T2 construct: host or cells: bacteria (GST-XIAP)
T2 sequence (P98170 whole entry): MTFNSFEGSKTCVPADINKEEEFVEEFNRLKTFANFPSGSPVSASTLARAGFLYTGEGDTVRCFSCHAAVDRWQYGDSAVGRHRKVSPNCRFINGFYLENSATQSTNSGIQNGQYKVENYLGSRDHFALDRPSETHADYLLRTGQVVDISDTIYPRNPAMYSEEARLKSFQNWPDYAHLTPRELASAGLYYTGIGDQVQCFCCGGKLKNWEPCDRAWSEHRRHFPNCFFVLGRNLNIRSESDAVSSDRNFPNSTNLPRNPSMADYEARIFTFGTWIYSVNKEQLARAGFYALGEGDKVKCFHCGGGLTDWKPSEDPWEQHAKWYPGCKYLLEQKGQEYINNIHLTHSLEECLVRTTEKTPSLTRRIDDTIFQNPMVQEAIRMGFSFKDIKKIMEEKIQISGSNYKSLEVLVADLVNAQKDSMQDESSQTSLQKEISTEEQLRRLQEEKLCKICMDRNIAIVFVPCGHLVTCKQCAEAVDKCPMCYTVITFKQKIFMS
Procedure: Bacterially expressed His-ARTS was purified using fast protein liquid chromatography (FPLC), and bacterially expressed GST-XIAP was purified using glutathione beads. P53 recombinant protein was purchased from R&D (cat #SP-450). Recombinant p53 and GST-XIAP were incubated. E1, UbcH5b, ubiquitin (Ub), and the appropriate E3 in conjugation buffer (20 mM Tris-Cl [pH 7.6], 100 mM KCl, 5 mM MgCl2, and 1 mM DTT) containing 2 mM ATP at 37C for 1 hour.

SMILES: Cn1ccnc1C(=O)c1ccc(NC(=O)C(=O)N[C@H](CO)Cc2ccccc2)cc1 [B3, (S)-N1-(1-hydroxy-3-phenylpropan-2-yl)-N2-(4-(1-methyl-1H-imidazole-2-carbonyl)phenyl)oxalamide]
- cellular death (blebbing, cell shrinkage) ([1]; 40 μM, 24 h): induced cellular death
- cellular death (blebbing, cell shrinkage) ([1]; increasing concentrations, 7 days, dose dependent): induced cellular death
- binding between ARTS and p53 [2]: reduces
- Bcl-2 levels ([3]; 20 μM, 24 hrs): clearly reduced
- XIAP levels ([3]; 20 μM, 24 hrs): clearly reduced
- cleavage of Caspase 3 ([3]; 20 μM, 24 hrs): increased
- cleavage of Caspase 9 ([3]; 20 μM, 24 hrs): increased
- cleavage of PARP ([3]; 20 μM, 24 hrs): increased
- MDM2 levels ([3]; 20, 30, 40 μM B3, 24 hours): reduction
- XIAP levels ([3]; 20, 30, 40 μM B3, 24 hours): reduction
- cPARP or caspase3 ([3]; 20, 30, 40 μM B3, 24 hours): elevation
- p53 levels ([3]; 20, 30, 40 μM B3, 24 hours): elevation
- ARTS levels ([3]; B3 in combined treatment with ABT-199, 24 hrs): downregulated
- Bcl-2 levels ([3]; six hours of B3 treatment): decreased
- sensitivity of cancer cell lines to B3 [4]: sensitive
- GI50 [5]: 14.8 µM
- p53 Ubiquitylation by XIAP [6]: dose-dependent inhibition
